Reference: the NIST ThermoML archive (doi:10.1021/je3007666)

Test: relative permittivity at zero frequency (dimensionless); xn = mol fraction of the nth substance listed
Details: 100 kPa, Liquid, Dielectrometer

CC(C)CO [2-methyl-1-propanol] + CC(C)(C)O
relative permittivity at zero frequency
Details | 288.15 K | 293.15 K | 298.15 K | 303.15 K | 308.15 K
x2 = 0 | 19.51 | 18.71 | 17.96 | 17.23 | 16.53
x2 = 0.0497 | 19.46 | 18.65 | 17.85 | 17.09 | 16.37
x2 = 0.0999 | 19.37 | 18.52 | 17.74 | 16.96 | 16.21
x2 = 0.1502 | 19.24 | 18.38 | 17.57 | 16.78 | 16.05
x2 = 0.2002 | 19.09 | 18.24 | 17.43 | 16.62 | 15.84
x2 = 0.2497 | 18.94 | 18.08 | 17.25 | 16.42 | 15.63
x2 = 0.2998 | 18.78 | 17.89 | 17.08 | 16.22 | 15.44
x2 = 0.3507 | 18.6 | 17.71 | 16.88 | 16.01 | 15.2
x2 = 0.4003 | 18.43 | 17.53 | 16.7 | 15.8 | 14.97
x2 = 0.4497 | 18.26 | 17.36 | 16.49 | 15.57 | 14.74
x2 = 0.4998 | 18.11 | 17.15 | 16.3 | 15.34 | 14.47
x2 = 0.5501 | 17.93 | 16.96 | 16.07 | 15.07 | 14.22
x2 = 0.6012 | 17.74 | 16.74 | 15.83 | 14.8 | 13.93
x2 = 0.649 | 17.53 | 16.5 | 15.58 | 14.52 | 13.61
x2 = 0.7003 | 17.3 | 16.24 | 15.28 | 14.2 | 13.27
x2 = 0.751 | 17.02 | 15.93 | 14.96 | 13.84 | 12.91
x2 = 0.8007 | 16.68 | 15.59 | 14.59 | 13.46 | 12.49
x2 = 0.8499 | 16.3 | 15.17 | 14.17 | 13.03 | 12.06
x2 = 0.9002 | 15.8 | 14.67 | 13.69 | 12.53 | 11.55
x2 = 0.9489 | 15.21 | 14.08 | 13.13 | 11.97 | 11.01

CC(C)CO [2-methyl-1-propanol] + CCC(C)O
relative permittivity at zero frequency
Details | 288.15 K | 293.15 K | 298.15 K | 303.15 K | 308.15 K
x2 = 0 | 19.51 | 18.71 | 17.96 | 17.23 | 16.53
x2 = 0.0488 | 19.46 | 18.66 | 17.9 | 17.17 | 16.47
x2 = 0.1011 | 19.41 | 18.61 | 17.85 | 17.11 | 16.4
x2 = 0.1488 | 19.36 | 18.55 | 17.78 | 17.05 | 16.34
x2 = 0.2005 | 19.31 | 18.49 | 17.72 | 16.98 | 16.27
x2 = 0.2489 | 19.25 | 18.43 | 17.66 | 16.92 | 16.2
x2 = 0.3013 | 19.2 | 18.38 | 17.59 | 16.85 | 16.13
x2 = 0.3511 | 19.14 | 18.31 | 17.53 | 16.78 | 16.05
x2 = 0.3993 | 19.09 | 18.25 | 17.46 | 16.7 | 15.97
x2 = 0.4473 | 19.03 | 18.19 | 17.39 | 16.63 | 15.89
x2 = 0.4984 | 18.98 | 18.13 | 17.32 | 16.56 | 15.81
x2 = 0.5512 | 18.92 | 18.06 | 17.25 | 16.48 | 15.73
x2 = 0.5999 | 18.87 | 18 | 17.18 | 16.4 | 15.65
x2 = 0.649 | 18.81 | 17.94 | 17.1 | 16.32 | 15.56
x2 = 0.7017 | 18.76 | 17.88 | 17.03 | 16.24 | 15.48
x2 = 0.7502 | 18.71 | 17.81 | 16.96 | 16.16 | 15.39
x2 = 0.7989 | 18.66 | 17.75 | 16.89 | 16.08 | 15.3
x2 = 0.851 | 18.61 | 17.69 | 16.81 | 16 | 15.21
x2 = 0.9003 | 18.56 | 17.63 | 16.74 | 15.92 | 15.12
x2 = 0.9499 | 18.51 | 17.57 | 16.67 | 15.83 | 15.03
